Results: patent US20250213707A1, “COMPOUND FOR INCREASING EFFICACY OF ONCOLYTIC VIRUSES” (ABLEVIA BIOTECH GMBH, priority 2022, published 2025)

Test system: IgG from human donors (anti-AAV antibodies)
Test: Screen for anti-AAV antibodies in human sera, 2452 linear 15-amino-acid AAV peptides on microarrays (Table 1)
Format: binding
Set-up: key to group I: X: the deduplicated aggregate of the respective top 10 peptide hits for each donor was compiled and designated as group I; key to group II: X: the deduplicated aggregate of the respective top 25 peptide hits for each donor was compiled and designated as group II; key to group III: X: the deduplicated aggregate of the respective top 50 peptide hits for each donor was compiled and designated as group III
Settings: for group I: membership in deduplicated aggregate of top 10 peptide hits for each donor
Experimental: 2452 linear peptides derived from the sequences of 16 different AAVs and with a sequence length of 15 amino-acids each were synthesized.
Samples obtained from human donors were screened for antibodies against these AAV-derived peptides immobilized on microarrays. To this end, IgG was prepared from blood obtained from the human donors by protein G purification. Each IgG sample was incubated with the peptide microarrays and Ig binding signals were detected by fluorescence. All antibody binding signals to the peptides on the arrays were background subtracted and ranked for each sample and a deduplicated aggregate of the respective top 250 peptide hits for each donor with the corresponding protein sequence of origin (as obtained from UniProt or other sources) was compiled (designated as group IV). Further, the deduplicated aggregate of the respective top 50 peptide hits for each donor was compiled and designated as group III. Further, the deduplicated aggregate of the respective top 25 peptide hits for each donor was compiled and designated as group II. Finally, the deduplicated aggregate of the respective top 10 peptide hits for each donor was compiled and designated as group I.
Altogether, group I contains 110 distinct peptide hits (assigned to the corresponding AAV vectors in Table 1), group II contains 289 distinct peptide hits, group III contains 428 distinct peptide hits and group IV contains 1271 distinct peptide hits. Evidently, group I is a subset of group II which in turn is a subset of group III which in turn is a subset of group IV. Groups I-IV correspond to the top 4.4%, […], 17.5% and 51.8%, respectively, of all peptides screened.

[1] = human donor IgG binding to linear 15-amino-acid AAV peptides on microarray, fluorescence
[2] = membership in deduplicated aggregate of top 25 peptide hits for each donor, human donor IgG binding to linear 15-amino-acid AAV peptides on microarray, fluorescence
[3] = membership in deduplicated aggregate of top 50 peptide hits for each donor, human donor IgG binding to linear 15-amino-acid AAV peptides on microarray, fluorescence
[4] = X = peptide belongs to the deduplicated aggregate of the top 50 peptide hits for each donor, linear 15-amino-acid AAV peptides, IgG binding by fluorescence
[5] = X = peptide in the deduplicated aggregate of the top 50 peptide hits for each donor (top 17.5% of all peptides screened), linear 15-amino-acid AAV peptides on microarrays, human donor IgG, fluorescence
[6] = X = peptide belongs to the deduplicated aggregate of the top 25 peptide hits for each donor, linear 15-amino-acid AAV peptides, IgG binding by fluorescence

Substance | group I [1] | group II [2] | group III [3] | group III [4] | other results
HYFGYSTPWGYFDF (REGION 1..14: note = peptide derived from viral capsid protein) [SEQ ID NO: 1917] | X | X | X | – | –
321 (IEKVMITDEEEIRTT; REGION 1..15: note = peptide derived from viral capsid protein) [compound 321] | – | – | – | X | –
LQQQNAAPIVGAVN (REGION 1..14: note = peptide derived from viral capsid protein) [SEQ ID NO: 1955] | X | X | X | – | –
475 (AGPPKPKPNQQHQDQ; REGION 1..15: note = peptide derived from viral capsid protein) [compound 475] | – | – | – | – | group III [5]: X
ADPPTTFSQAKLAS [SEQ ID NO: 1939] | X | X | X | – | –
GTNTMATGSGAPMA (REGION 1..14: note = peptide derived from viral capsid protein) [SEQ ID NO: 1927] | X | X | X | – | –
TAPGKKRPVDQSPQ (REGION 1..14: note = peptide derived from viral capsid protein) [SEQ ID NO: 1923] | X | X | X | – | –
PLVDQYLYRFVSTN (REGION 1..14: note = peptide derived from viral capsid protein) [SEQ ID NO: 1938] | X | X | X | – | –
424 (ENSKRWNPEIQYTSN; REGION 1..15: note = peptide derived from viral capsid protein) [compound 424] | – | – | – | – | group III [5]: X
357 (SLDRLMNPLIDQYLY; REGION 1..15: note = peptide derived from viral capsid protein) [compound 357] | – | – | – | X | –
324 (SDIRDQSRNWLPGPC; REGION 1..15: note = peptide derived from viral capsid protein) [compound 324] | – | – | – | X | –
DWLEDNLSEGIREW (REGION 1..14: note = peptide derived from viral capsid protein) [SEQ ID NO: 1943] | X | X | X | – | –
432 (GSSSGNWHCDSTWLG; REGION 1..15: note = peptide derived from viral capsid protein) [compound 432] | – | – | – | – | group III [5]: X
332 (ISSQSGASNDNHYFG; REGION 1..15: note = peptide derived from viral capsid protein) [compound 332] | – | – | – | X | –
DKAYDRQLDSGDNP (REGION 1..14: note = peptide derived from viral capsid protein) [SEQ ID NO: 1926] | X | X | X | – | –
DDEDKFFPMSGVMI (REGION 1..14: note = peptide derived from viral capsid protein) [SEQ ID NO: 1937] | X | X | X | – | –
354 (YFDFNRFHCHFSPRD; REGION 1..15: note = peptide derived from viral capsid protein) [compound 354] | – | – | – | X | –
DSQWLGDRVITTST (REGION 1..14: note = peptide derived from viral capsid protein) [SEQ ID NO: 1892] | X | X | X | – | –
PGAPKPKANQQKQD [SEQ ID NO: 1958] | X | X | X | – | –
287 (AQPASSLGADTMSAG; REGION 1..15: note = peptide derived from viral capsid protein) [compound 287] | – | – | – | X | group II [6]: X
361 (YSTPWGYFDFNRFHC; REGION 1..15: note = peptide derived from viral capsid protein) [compound 361] | – | – | – | X | –
ESVPDPQPIGEPPA [SEQ ID NO: 1947] | X | X | X | – | –
407 (NTPVPADPPTAFNKD; REGION 1..15: note = peptide derived from viral capsid protein) [compound 407] | – | – | – | – | group III [5]: X

Substance | group I [1] | group II [2] | group III [3] | group III [4] | other results
YHLNGRDSLVNPGP (REGION 1..14: note = peptide derived from viral capsid protein) [SEQ ID NO: 1904] | X | X | X | – | –
SQSLDRLMNPLIDQ (REGION 1..14: note = peptide derived from viral capsid protein) [SEQ ID NO: 1966] | X | X | X | – | –
FQERLQEDTSFGGN [SEQ ID NO: 1949] | X | X | X | – | –
288 (VQDSTTTIANNLTST; REGION 1..15: note = peptide derived from viral capsid protein) [compound 288] | – | – | – | X | group II [6]: X
385 (TTSTRTWALPTYNNH; REGION 1..15: note = peptide derived from viral capsid protein) [compound 385] | – | – | – | X | –
PRDWQRLINNNWGF (REGION 1..14: note = peptide derived from viral capsid protein) [SEQ ID NO: 1960] | X | X | X | – | –
QLPYVLGSAHQGCL (REGION 1..14: note = peptide derived from viral capsid protein) [SEQ ID NO: 1962] | X | X | X | – | –
348 (NHYFGYSTPWGYFDF; REGION 1..15: note = peptide derived from viral capsid protein) [compound 348] | – | – | – | X | –
428 (PVATEEYGIVADNLQ; REGION 1..15: note = peptide derived from viral capsid protein) [compound 428] | – | – | – | – | group III [5]: X
369 (EYQLPYVLGSAHQGC; REGION 1..15: note = peptide derived from viral capsid protein) [compound 369] | – | – | – | X | –
323 (RPVEHSPVEPDSSSG; REGION 1..15: note = peptide derived from viral capsid protein) [compound 323] | – | – | – | X | –
431 (EIKTTNPVATEEYGI; REGION 1..15: note = peptide derived from viral capsid protein) [compound 431] | – | – | – | – | group III [5]: X
328 (STVQVFTDSEYQLPY; REGION 1..15: note = peptide derived from viral capsid protein) [compound 328] | – | – | – | X | –
KNTPVPADPPTTES [SEQ ID NO: 1930] | X | X | X | – | –
453 (FGYSTPWGYFDFNRF; REGION 1..15: note = peptide derived from viral capsid protein) [compound 453] | – | – | – | – | group III [5]: X
GNTSQQQTDRNAFY (REGION 1..14: note = peptide derived from viral capsid protein) [SEQ ID NO: 1897] | X | X | X | – | –
299 (SRTQSTGGTAGTQQL; REGION 1..15: note = peptide derived from viral capsid protein) [compound 299] | – | – | – | X | –
383 (FNGLDKGEPVNAADA; REGION 1..15: note = peptide derived from viral capsid protein) [compound 383] | – | – | – | X | –
315 (PFPADVFMVPQYGYL; REGION 1..15: note = peptide derived from viral capsid protein) [compound 315] | – | – | – | X | –
283 (EFLGLEAGPPKPKPN; REGION 1..15: note = peptide derived from viral capsid protein) [compound 283] | – | – | – | X | group II [6]: X
314 (EHDKAYDRQLDSGDN; REGION 1..15: note = peptide derived from viral capsid protein) [compound 314] | – | – | – | X | –
380 (SSYAHSQSLDRLMNP; REGION 1..15: note = peptide derived from viral capsid protein) [compound 380] | – | – | – | X | –
